The text below walks through data of patent publication US20140357487A1, “PLANTS HAVING INCREASED TOLERANCE TO HERBICIDES” (BASF SE, priority 2011, published 2014).

Structures are written as SMILES.

Assay [1] has as its system transgenic Arabidopsis plants overexpressing Barley HPPD (Seq ID: 2). Briefly: Arabidopsis growth inhibition in 48-well plates, line overexpressing Barley HPPD. It is filed as in vivo, Arabidopsis thaliana. To be noted: Barley (Seq ID: 2) overexpression line; plant growth IC50 of transgenic divided by that of wildtype plants. From the text:
Various methods for the production of stably transformed plants are well known in the art. Coumarone-derivative herbicide tolerant soybean (Glycine max) or corn (Zea mays) plants can be produced by a method described by Olhoft et al. (US patent 2009/0049567). Briefly, HPPD or HST encoding polynucleotides are cloned into a binary vector using standard cloning techniques as described by Sambrook et al. (Molecular cloning (2001) Cold Spring Harbor Laboratory Press). The final vector construct contains an HPPD or HST encoding sequence flanked by a promoter sequence (e.g. the ubiquitin promoter (PcUbi) sequence) and a terminator sequence (e.g. the nopaline synthase terminator (NOS) sequence) and a resistance marker gene cassette (e.g. AHAS) (FIG. 2). Optionally, the HPPD or HST gene can provide the means of selection. Agrobacterium-mediated transformation is used to introduce the DNA into soybean's axillary meristem cells at the primary node of seedling explants. After inoculation and co-cultivation with Agrobacteria, the explants are transferred to shoot induction medium without selection for one week. […]
Depending on the species, the plants are kept at 10-25° C. or 20-35° C. […] During this time, the plants are tended and their response to the individual treatments is evaluated. […] Tolerance to coumarone-derivative herbicides can also be assessed in Arabidopsis. […]

Assay [2] deals with transgenic corn plants, Arabidopsis Q293S, event SDM-71864. Briefly: Greenhouse testing of transgenic corn plants, Arabidopsis Q293S. It is filed as in vivo, Zea mays. The note with it: corn SDM-71864, 5 days after herbicide treatment, average of 8 T1. The source says:
(§1) Various methods for the production of stably transformed plants are well known in the art. Coumarone-derivative herbicide tolerant soybean (Glycine max) or corn (Zea mays) plants can be produced by a method described by Olhoft et al. (US patent 2009/0049567). Briefly, HPPD or HST encoding polynucleotides are cloned into a binary vector using standard cloning techniques as described by Sambrook et al. (Molecular cloning (2001) Cold Spring Harbor Laboratory Press). The final vector construct contains an HPPD or HST encoding sequence flanked by a promoter sequence (e.g. the ubiquitin promoter (PcUbi) sequence) and a terminator sequence (e.g. the nopaline synthase terminator (NOS) sequence) and a resistance marker gene cassette (e.g. AHAS) (FIG. 2). Optionally, the HPPD or HST gene can provide the means of selection. Agrobacterium-mediated transformation is used to introduce the DNA into soybean's axillary meristem cells at the primary node of seedling explants. After inoculation and co-cultivation with Agrobacteria, the explants are transferred to shoot induction medium without selection for one week. The explants are subsequently transferred to shoot induction medium with 1-3 μM imazapyr (Arsenal) for 3 weeks to select for transformed cells. Explants with healthy callus/shoot pads at the primary node are then transferred to shoot elongation medium containing 1-3 μM imazapyr until a shoot elongates or the explant dies. After regeneration, transformants are transplanted to soil in small pots, placed in growth chambers (16 hr day/8 hr night; 25° C. day/23° C. night; 65% relative humidity; 130-150 mE m−2 s−1) and subsequently tested for the presence of the T-DNA via Taqman analysis. After a few weeks, healthy, transgenic positive, single copy events are transplanted to larger pots and allowed to grow in the growth chamber. Transformation of corn plants is done by a method described by McElver and Singh (WO 2008/124495). Plant transformation vector constructs containing HPPD or HST sequences are introduced into maize immature embryos via Agrobacterium-mediated transformation. Transformed cells are selected in selection media supplemented with 0.5-1.5 μM imazethapyr for 3-4 weeks. Transgenic plantlets are regenerated on plant regeneration media and rooted afterwards. Transgenic plantlets are subjected to TaqMan analysis for the presence of the transgene before being transplanted to potting mixture and grown to maturity in greenhouse. Arabidopsis thaliana is transformed with HPPD or HST sequences by floral dip method as described by McElver and Singh (WO 2008/124495). Transgenic Arabidopsis plants are subjected to Tag Man analysis for analysis of the number of integration loci. Transformation of Oryza sativa (rice) are done by protoplast transformation as described by Peng et al. (U.S. Pat. No. 6,653,529)
(§2) Transgenic plants expressing heterologous HPPD or HST enzymes are tested for tolerance against coumarone-derivative herbicides in greenhouse experiments.
(§3) For post emergence treatment, the test plants are first grown to a height of 3 to 15 cm, depending on the plant habit, and only then treated with the herbicides. For this purpose, the test plants are either sown directly and grown in the same containers, or they are first grown separately and transplanted into the test containers a few days prior to treatment.
Depending on the species, the plants are kept at 10-25° C. or 20-35° C. […] During this time, the plants are tended and their response to the individual treatments is evaluated. […] Tolerance to coumarone-derivative herbicides can also be assessed in Arabidopsis. In this case transgenic Arabidopsis thaliana plants are assayed for improved tolerance to coumarone-derivative herbicides in 48-well plates. Seeds are surface sterilized by stirring for 5 min in ethanol+water (70+30 by volume), rinsing one time with ethanol+water (70+30 by volume) and two times with a sterile, deionized water. […]

Assay [3] deals with soybean plants, wild type (transgene none). Briefly: Greenhouse testing of soybean plants, wild type. Type of assay: in vivo, Glycine max. The note with it: 5 days after herbicide treatment.
Excerpt: as §1, §2, §3
(§4) Depending on the species, the plants are kept at 10-25° C. or 20-35° C. The test period extends over 3 weeks. During this time, the plants are tended and their response to the individual treatments is evaluated. […] Tolerance to coumarone-derivative herbicides can also be assessed in Arabidopsis. In this case transgenic Arabidopsis thaliana plants are assayed for improved tolerance to coumarone-derivative herbicides in 48-well plates. Seeds are surface sterilized by stirring for 5 min in ethanol+water (70+30 by volume), rinsing one time with ethanol+water (70+30 by volume) and two times with a sterile, deionized water. […]

In assay [4] the test system is transgenic soybean plants, Arabidopsis M335Y, event SDS-9866. Put plainly: Greenhouse testing of transgenic soybean plants, Arabidopsis M335Y. The note with it: soybean SDS-9866, 5 days after herbicide treatment, average of 8 T1. It is filed as in vivo, Glycine max.
Excerpt: as §1, §2, §3, §4

For `CC1=NOC(c2c(Cl)ccc(C3=C(O)c4ncccc4C(C)(C)S3(=O)=O)c2Cl)C1` (centres unmarked) [Inhibitor 1, 7-[2,4-dichloro-3-(3-methyl-4,5-dihydroisoxazol-5-yl)phenyl]-5,5-dimethyl-6,6-dioxo-thiopyrano[4,3-b]pyridin-8-ol], in assay [1], the Tolerance factor came out at 10.
Consider `CC1(C)c2cccnc2C(O)=C(c2ccc(Cl)nc2Cl)S1(=O)=O` [Inhibitor 2, 7-(2,6-dichloro-3-pyridyl)-5,5-dimethyl-6,6-dioxo-thiopyrano[4,3-b]pyridin-8-ol], for which the “Injury evaluation, scale of 1-100, bleaching phenotype” value (shortened to “Injury evaluation, scale”) in assay [2] (2.5 g/ha) is recorded as 4; in assay [2] (10 g/ha), 17; in assay [2] (40 g/ha) it was 15; in assay [3] (2.5 g/ha), 11; in assay [3] (10 g/ha), 17; in assay [3] (40 g/ha), 23. For the same molecule, the “Injury evaluation, scale” value in assay [4] (2.5 g/ha) was 4; in assay [4] (10 g/ha), 5; in assay [4] (40 g/ha) it was 10. The molecule also had a Tolerance factor in assay [1] of 3.
For the molecule `Cc1c(C(=O)c2cnn(C)c2O)ccc(S(C)(=O)=O)c1C1=NOCC1` [Topramezone, reference compound], the “Injury evaluation, scale” value is on record as 1 in assay [2] (6.25 g/ha); 4 in assay [2] (25 g/ha); 6 in assay [2] (100 g/ha); 21 in assay [3] (6.25 g/ha); 22 in assay [3] (25 g/ha); 25 in assay [3] (100 g/ha). For the same molecule, the “Injury evaluation, scale” value in assay [4] (6.25 g/ha) came to 4; in assay [4] (25 g/ha), 8; in assay [4] (100 g/ha), 23.
